# Experimental data reported in ChEMBL document CHEMBL1133970, “Novel 3-dodecanoylindole-2-carboxylic acid inhibitors of cytosolic phospholipase A(2)” (Bioorg Med Chem Lett, 2001).
# Species: Homo sapiens
# Assay: Cytosolic phospholipase A2 (c-PLA2) inhibitory potency of the compound was evaluated by measuring the calcium ionophore A-23,187-induced arachidonic acid release from human platelets
# Format: functional
row,SMILES,IC50 [nM]
1,CCCCCCCCCCCC(=O)c1c(C(=O)O)n(CCOc2ccc(CC(=O)O)cc2)c2ccccc12,2600
2,CCCCCCCCCCCC(=O)c1c(C(=O)O)n(CCCCCCCC(=O)O)c2ccccc12,2500
3,CCCCCCCCCCCC(=O)c1c(C(=O)O)n(CCSc2ccc(C(=O)O)cc2)c2ccccc12,2500
4,CCCCCCCCCCCC(=O)c1c(C(=O)O)n(CCOc2ccc(C(=O)O)cc2)c2ccccc12,860
